Results as given in patent publication US6875582B1 (priority 1999, dated 2005).

Columns and labels:
[1] = tested on: WT K. pneumoniae Tim 19 (TEM-1 beta-lactamase); type: cell-based, Klebsiella pneumoniae; settings: for Drug-Resistance Phenotype: WT K. pneumoniae Tim 19, TEM-1; for Resistance or sensitivity of clinical isolate: K. pneumoniae strain Tim 19 containing TEM-1 beta-lactamase
[2] = tested on: K. pneumoniae Tim 19 CTX^R mutants; assay: Multi-drug-resistance phenotype of CTX-selected mutants; type: cell-based, Klebsiella pneumoniae; settings: CTX^R mutants (8 analyzed), MNNG continuous culture, selected with CTX 2-550 μg/ml
[3] = tested on: E. coli ATCC 11775; type: cell-based
[4] = tested on: E. coli 11775 NA^R mutants; assay: Antimicrobial disk-diffusion test (antibiogram) of clones selected on nalidixic acid gradient plates; type: cell-based

Q: Which “Drug-Resistance Phenotype” value [1] does the source give for C[C@H]1[C@H](NC(=O)/C(=N\OC(C)(C)C(=O)O)c2csc(N)n2)C(=O)N1S(=O)(=O)O [ATM, aztreonum] here?
A: CTX^S, CAZ^S, FOX^S, ATM^S

Q: What about the “Drug-Resistance Phenotype” value [2] of the same molecule?
A: CTX^R, CAZ^R, FOX^R, ATM^R

Q: Which “Resistance or sensitivity of clinical isolate” value [1] does the source give for CC(C)(O/N=C(\C(=O)N[C@@H]1C(=O)N2C(C(=O)[O-])=C(C[n+]3ccccc3)CS[C@H]12)c1csc(N)n1)C(=O)O [CAZ, ceftazidime] here?
A: sensitive

Q: And the “Drug-Resistance Phenotype” value [1]?
A: CTX^S, CAZ^S, FOX^S, ATM^S

Q: And the “Drug-Resistance Phenotype” value [2]?
A: CTX^R, CAZ^R, FOX^R, ATM^R

Q: Which results are given for CO/N=C(\C(=O)N[C@@H]1C(=O)N2C(C(=O)O)=C(COC(C)=O)CS[C@H]12)c1csc(N)n1 [CTX, cefotaxime]?
A: Resistance or sensitivity of clinical isolate [1]: sensitive; Drug-Resistance Phenotype [1]: CTX^S, CAZ^S, FOX^S, ATM^S; Drug-Resistance Phenotype [2]: CTX^R, CAZ^R, FOX^R, ATM^R

Q: What does the source list for CCOS(C)(=O)=O [EMS, Ethyl Methanesulfonate]?
A: Mutant Frequencies (NA^R phenotype) [3]: 1.2 × 10^−7; Survival (%) [3]: 64%

Q: Which results are given for CO[C@@]1(NC(=O)Cc2cccs2)C(=O)N2C(C(=O)O)=C(COC(N)=O)CS[C@@H]21 [FOX, cefoxitin]?
A: Resistance or sensitivity of clinical isolate [1]: sensitive; Drug-Resistance Phenotype [1]: CTX^S, CAZ^S, FOX^S, ATM^S; Drug-Resistance Phenotype [2]: CTX^R, CAZ^R, FOX^R, ATM^R

Q: How did the “Phenotype (nalidixic acid resistance)” value ([4]; mutant D2C2-a, EMS continuous culture, 82 generations, Gly-81→Cys) turn out when CCn1cc(C(=O)O)c(=O)c2ccc(C)nc21 [NA, nalidixic acid] was run?
A: Partially NA^R

Q: And the “Phenotype (nalidixic acid resistance)” value ([4]; mutant D2C2-h, EMS continuous culture, 62 generations, Gly-81→Cys)?
A: Partially NA^R

Q: What about the “Phenotype (nalidixic acid resistance)” value ([4]; mutant D2C2-l, EMS continuous culture, 62 generations, Gly-82 (GAC)→Asn) of the same molecule?
A: Partially NA^R

Q: And the “Phenotype (nalidixic acid resistance)” value ([4]; mutant D3NX-E5, EMS continuous culture, 135 generations, Ser-83→Leu)?
A: Completely NA^R

Q: What about the “Phenotype (nalidixic acid resistance)” value ([4]; mutant D3NX-E6, EMS continuous culture, 135 generations, Ser-83→Leu) of the same molecule?
A: Completely NA^R

Q: And the “Phenotype (nalidixic acid resistance)” value ([4]; mutant D7NX-E1, EMS continuous culture, 403 generations, Ser-83→Leu)?
A: Completely NA^R

Q: What about the “Phenotype (nalidixic acid resistance)” value ([4]; mutant D7NX-E2, EMS continuous culture, 403 generations, Ser-83→Leu) of the same molecule?
A: Completely NA^R

Q: What about the “Phenotype (nalidixic acid resistance)” value ([4]; mutant NX-E09, EMS, batch culture, gyrA Asp-87→Ile) of the same molecule?
A: Partially NA^R

Q: What about the “Phenotype (nalidixic acid resistance)” value ([4]; mutant NX-E10, EMS, batch culture, gyrA Ser-83→Leu) of the same molecule?
A: Completely NA^R

Q: And the “Phenotype (nalidixic acid resistance)” value ([4]; mutant NX-M3, MNNG, batch culture, gyrA Asp-87→Gly)?
A: Partially NA^R

Q: What about the “Phenotype (nalidixic acid resistance)” value ([4]; mutant NX-M5, MNNG, batch culture, gyrA Asp-87→Asn) of the same molecule?
A: Partially NA^R

Q: What about the “Phenotype (nalidixic acid resistance)” value ([4]; mutant NX-M6, MNNG, batch culture, gyrA Asp-87→Gly) of the same molecule?
A: Partially NA^R

Q: And the “Phenotype (nalidixic acid resistance)” value ([4]; mutant NX-N6, NQO, batch culture, gyrA Ser-83→Leu)?
A: Completely NA^R

Q: O=[N+]([O-])c1cc[n+]([O-])c2ccccc12 [NQO, 4Nitroquinoline-lxide] was tested. Which “Mutant Frequencies (NA^R phenotype)” value [3] did it give?
A: 0.6 × 10^−8

Q: What about the “Survival (%)” value [3] of the same molecule?
A: 77%

Q: CC1(C)S[C@@H]2[C@H](NC(=O)[C@H](N)c3ccccc3)C(=O)N2[C@H]1C(=O)O [ampicillin] was tested. Which “Resistance or sensitivity of clinical isolate” value [1] did it give?
A: resistance
